biological target: DYRK1A (Homo sapiens, UniProt Q13627); test: Affinity testing of compounds with DYRK1A (KD); assay type: binding; details: DYRK1A affinity key classes

Kd	Structure (SMILES)
101 to 500 nM	Cc1nc2ccc(-c3ccncc3)nc2n1-c1ccc(C(=O)NC2CC(F)(F)C2)cc1 [Compound 58, N-(3,3-difluorocyclobutyl)-4-(2-methyl-5-(pyridin-4-yl)-3H-imidazo[4,5-b]pyridin-3-yl)benzamide]
0.5 to 100 nM	Cc1nc2ccc(-c3ccnc(N)c3)nc2n1-c1ccc(N2C[C@H](C)O[C@@H](C)C2)c(F)c1 [Compound 183, 4-(3-(4-((2S,6S)-2,6-dimethylmorpholino)-3-fluorophenyl)-2-methyl-3H-imidazo[4,5-b]pyridin-5-yl)pyridin-2-amine]
0.5 to 100 nM	NC(=O)c1ccc(-n2cnc3ccc(-c4ccncc4)c(F)c32)nc1 [Compound 15, 6-(7-fluoro-6-(pyridin-4-yl)-1H-benzo[d]imidazol-1-yl)nicotinamide]
101 to 500 nM	Cc1nc2ccc(-c3ccncc3)nc2n1-c1ccc(C(=O)N2CCN(C3COC3)CC2)cc1 [Compound 57, (4-(2-methyl-5-(pyridin-4-yl)-3H-imidazo[4,5-b]pyridin-3-yl)phenyl)(4-(oxetan-3-yl)piperazin-1-yl)methanone]
0.5 to 100 nM	Nc1cc(-c2ccc3nccn3n2)ccn1 [Compound 24, 4-(imidazo[1,2-b]pyridazin-6-yl)pyridin-2-amine]
101 to 500 nM	Cc1nc2ccc(-c3ccncc3)nc2n1-c1ccc(CN2[C@H](C)COC[C@@H]2C)cc1 [Compound 117, (3S,5R)-3,5-dimethyl-4-(4-(2-methyl-5-(pyridin-4-yl)-3H-imidazo[4,5-b]pyridin-3-yl)benzyl)morpholine]
0.5 to 100 nM	Cc1nc2ccc(-c3ccnc(N)c3)nc2n1-c1cccc(CN2C[C@H](C)O[C@@H](C)C2)c1 [Compound 156, 4-(3-(3-(((2S,6S)-2,6-dimethylmorpholino)methyl)phenyl)-2-methyl-3H-imidazo[4,5-b]pyridin-5-yl)pyridin-2-amine]
501 to 10000 nM	Fc1cnccc1-c1ccc2ncc(-c3ccc(CN4CCOCC4)cc3)n2n1 [Compound 105, 4-(4-(6-(3-fluoropyridin-4-yl)imidazo[1,2-b]pyridazin-3-yl)benzyl)morpholine]
101 to 500 nM	Nc1cc(-c2ccn3ncc(-c4ccc(CN5CCOCC5)s4)c3n2)ccn1 [Compound 114, 4-(3-(5-(morpholinomethyl)thiophen-2-yl)pyrazolo[1,5-a]pyrimidin-5-yl)pyridin-2-amine]
0.5 to 100 nM	Cc1nc2ccc(-c3ccncc3)c(F)c2n1-c1ccc2c(c1)OCO2 [Compound 19, 1-(benzo[d][1,3]dioxol-5-yl)-7-fluoro-2-methyl-6-(pyridin-4-yl)-1H-benzo[d]imidazole]
0.5 to 100 nM	Cc1nc2ccc(-c3ccnc(N)c3)nc2n1-c1ccc2c(c1)CCN2C1CCOCC1 [Compound 174, 4-(2-methyl-3-(1-(tetrahydro-2H-pyran-4-yl)indolin-5-yl)-3H-imidazo[4,5-b]pyridin-5-yl)pyridin-2-amine]
501 to 10000 nM	COc1cccc(-c2cnc3ccc(-c4ccncc4)nn23)c1 [Compound 75, 3-(3-methoxyphenyl)-6-(pyridin-4-yl)imidazo[1,2-b]pyridazine]
0.5 to 100 nM	COC(=O)c1ccc(-n2cnc3c(F)cc(-c4ccncc4)cc32)cc1 [Compound 16, methyl 4-(4-fluoro-6-(pyridin-4-yl)-1H-benzo[d]imidazol-1-yl)benzoate]
0.5 to 100 nM	Cc1nc2ccc(-c3ccnc(N)c3)nc2n1-c1cnc(N2CCOCC2)c(C2CC2)c1 [Compound 163, 4-(3-(5-cyclopropyl-6-morpholinopyridin-3-yl)-2-methyl-3H-imidazo[4,5-b]pyridin-5-yl)pyridin-2-amine]
